The text below walks through data of patent publication US11370798B2 (Vertex Pharmaceuticals Incorporated, priority 2012, dated 2022).

This assay has as its system HCT116 colorectal cancer cells. In words: Cisplatin sensitization assay (96 h cell viability MTS).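 Further: Test-compound concentration that lowers the Cisplatin IC50 by a set fold.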 In kind it is cell-based. The conditions noted are these: compound and Cisplatin added simultaneously, Cisplatin sensitization value. The gist of the method: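 Compound and cisplatin added together as a full matrix of 2-fold serial dilutions from a top final concentration of 10 μM; cells incubated 96 h at 37° C, 5% CO2. Viability then read by MTS after 1 h further incubation; sensitization value reported in μM bins.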
Regarding `CN1CCCCC1C(=O)N1CCN(c2c(F)cncc2NC(=O)c2c(N)nn3cc(F)cnc23)CC1` (stereo not drawn) [I-N-173, 2-amino-6-fluoro-N-(5-fluoro-4-(4-(1-methylpiperidine-2-carbonyl)piperazin-1-yl)pyridin-3-yl)pyrazolo[1,5-a]pyrimidine-3-carboxamide], the “Cisplatin Sensitization Assay” value is reported as “+++ (Cisplatin sensitization value of <0.02 μM)”.
On to `CN(C)CCc1cnn(-c2ccncc2NC(=O)c2c(N)nn3cc(F)cnc23)c1` [I-N-9, 2-amino-N-(4-(4-(2-(dimethylamino)ethyl)-1H-pyrazol-1-yl)pyridin-3-yl)-6-fluoropyrazolo[1,5-a]pyrimidine-3-carboxamide], for which the “Cisplatin Sensitization Assay” value was “+ (Cisplatin sensitization value>0.2 μM but <5 μM)”.
The entry for `Nc1nn2cc(F)cnc2c1C(=O)Nc1cnccc1N1CCC(C(=O)N2CCC3(COC3)C2)CC1` [I-G-84, N-(4-(4-(2-oxa-6-azaspiro[3.4]octane-6-carbonyl)piperidin-1-yl)pyridin-3-yl)-2-amino-6-fluoropyrazolo[1,5-a]pyrimidine-3-carboxamide] is “+++ (Cisplatin sensitization value of <0.02 μM)”; for `Nc1nn2cc(F)cnc2c1C(=O)Nc1cnccc1-n1ccnc1C1CC1` [I-N-202, 2-amino-N-(4-(2-cyclopropyl-1H-imidazol-1-yl)pyridin-3-yl)-6-fluoropyrazolo[1,5-a]pyrimidine-3-carboxamide] it is “+++ (Cisplatin sensitization value of <0.02 μM)”; for `CN1CCC[C@H]1C(=O)N1CCN(c2ccncc2NC(=O)c2c(N)nn3cc(F)cnc23)CC1` [I-N-198, (S)-2-amino-6-fluoro-N-(4-(4-(1-methylpyrrolidine-2-carbonyl)piperazin-1-yl)pyridin-3-yl)pyrazolo[1,5-a]pyrimidine-3-carboxamide] it is “++ (Cisplatin sensitization value>0.02 μM but <0.2 μM)”.
In the case of `CN1CC(C(=O)N2CCN(c3c(F)cncc3NC(=O)c3c(N)nn4cc(F)cnc34)CC2)C1` [I-N-194], the “Cisplatin Sensitization Assay” value is reported as “+++ (Cisplatin sensitization value of <0.02 μM)”.
`Nc1nn2cc(F)cnc2c1C(=O)Nc1cncc(F)c1N1CCC(S(=O)(=O)N2CCC2)CC1` [I-N-169, 2-amino-N-(4-(4-(azetidin-1-ylsulfonyl)piperidin-1-yl)-5-fluoropyridin-3-yl)-6-fluoropyrazolo[1,5-a]pyrimidine-3-carboxamide]: the “Cisplatin Sensitization Assay” value is given as “+++ (Cisplatin sensitization value of <0.02 μM)”.
Take `Nc1nn2cc(F)cnc2c1C(=O)Nc1cncc(F)c1N1CCC(C(=O)O)CC1` [I-N-92, 1-(3-(2-amino-6-fluoropyrazolo[1,5-a]pyrimidine-3-carboxamido)-5-fluoropyridin-4-yl)piperidine-4-carboxylic acid]: the “Cisplatin Sensitization Assay” value is on record as “+ (Cisplatin sensitization value>0.2 μM but <5 μM)”.
As to `CN1CCC(c2ccncc2NC(=O)c2c(N)nn3cc(F)cnc23)CC1=O` (stereo not drawn) [I-C-73, 2-amino-6-fluoro-N-(4-(1-methyl-2-oxopiperidin-4-yl)pyridin-3-yl)pyrazolo[1,5-a]pyrimidine-3-carboxamide], the “Cisplatin Sensitization Assay” value was “++ (Cisplatin sensitization value>0.02 μM but <0.2 μM)”.
As to `Nc1nn2cc(Cl)cnc2c1C(=O)Nc1cnccc1C1CCN(C2COC2)CC1` [I-C-11, 2-amino-6-chloro-N-(4-(1-(oxetan-3-yl)piperidin-4-yl)pyridin-3-yl)pyrazolo[1,5-a]pyrimidine-3-carboxamide], the “Cisplatin Sensitization Assay” value is “+++ (Cisplatin sensitization value of <0.02 μM)”.
`CN1CCN(C(=O)c2cnc(-c3ccncc3NC(=O)c3c(N)nn4cc(F)cnc34)c(Cl)c2)CC1` [I-C-46, 2-amino-N-(3-chloro-5-(4-methylpiperazine-1-carbonyl)-[2,4′-bipyridin]-3′-yl)-6-fluoropyrazolo[1,5-a]pyrimidine-3-carboxamide]: the “Cisplatin Sensitization Assay” value was “+ (Cisplatin sensitization value>0.2 μM but <5 μM)”.
As for `N#CCc1cnc2c(C(=O)Nc3cnccc3O[C@H]3CCNC3)c(N)nn2c1` [I-O-86, (S)-2-amino-6-(cyanomethyl)-N-(4-(pyrrolidin-3-yloxy)pyridin-3-yl)pyrazolo[1,5-a]pyrimidine-3-carboxamide], the “Cisplatin Sensitization Assay” value was “++ (Cisplatin sensitization value>0.02 μM but <0.2 μM)”.
For `CNCCCN(C)C(=O)C1CCN(c2c(F)cncc2NC(=O)c2c(N)nn3cc(F)cnc23)CC1` [I-G-17], the “Cisplatin Sensitization Assay” value was “+ (Cisplatin sensitization value>0.2 μM but <5 μM)”.
The entry for `C[C@@H]1CN(C(=O)C2CCN(c3c(F)cncc3NC(=O)c3c(N)nn4cc(F)cnc34)CC2)CCN1` [I-G-45, (R)-2-amino-6-fluoro-N-(5-fluoro-4-(4-(3-methylpiperazine-1-carbonyl)piperidin-1-yl)pyridin-3-yl)pyrazolo[1,5-a]pyrimidine-3-carboxamide] is “+++ (Cisplatin sensitization value of <0.02 μM)”; for `CN(C)C1CCCN(c2ccncc2NC(=O)c2c(N)nn3cc(Cl)cnc23)C1` (stereo not drawn) [I-N-40, 2-amino-6-chloro-N-(4-(3-(dimethylamino)piperidin-1-yl)pyridin-3-yl)pyrazolo[1,5-a]pyrimidine-3-carboxamide] it is “++ (Cisplatin sensitization value>0.02 μM but <0.2 μM)”; for `Nc1nn2cc(F)cnc2c1C(=O)Nc1cncc(F)c1N1CCN(C(=O)C2CNCCO2)CC1` (stereo not drawn) [I-N-172, 2-amino-6-fluoro-N-(5-fluoro-4-(4-(morpholine-2-carbonyl)piperazin-1-yl)pyridin-3-yl)pyrazolo[1,5-a]pyrimidine-3-carboxamide] it is “+++ (Cisplatin sensitization value of <0.02 μM)”.
The entry for `COC1(CN(C)C)CCN(c2ccncc2NC(=O)c2c(N)nn3cc(Cl)cnc23)CC1` [I-N-46, 2-amino-6-chloro-N-(4-(4-((dimethylamino)methyl)-4-methoxypiperidin-1-yl)pyridin-3-yl)pyrazolo[1,5-a]pyrimidine-3-carboxamide] is “+++ (Cisplatin sensitization value of <0.02 μM)”; for `Nc1nn2cc(F)cnc2c1C(=O)Nc1cncc(F)c1N1CCC(C(=O)N2CC3CCC(C2)N3)CC1` [I-G-44, N-(4-(4-(3,8-diazabicyclo[3.2.1]octane-3-carbonyl)piperidin-1-yl)-5-fluoropyridin-3-yl)-2-amino-6-fluoropyrazolo[1,5-a]pyrimidine-3-carboxamide] it is “+++ (Cisplatin sensitization value of <0.02 μM)”.
`Nc1nn2cc(F)cnc2c1C(=O)Nc1cnccc1N1CCN(C2CCOCC2)CC1` [I-N-11, 2-amino-6-fluoro-N-(4-(4-(tetrahydro-2H-pyran-4-yl)piperazin-1-yl)pyridin-3-yl)pyrazolo[1,5-a]pyrimidine-3-carboxamide]: the “Cisplatin Sensitization Assay” value is reported as “++ (Cisplatin sensitization value>0.02 μM but <0.2 μM)”.
For the compound `Nc1nn2cc(F)cnc2c1C(=O)Nc1cncc(Cl)c1N1CCC(O)C1` (stereo not drawn) [I-N-284, 2-amino-N-(5-chloro-4-(3-hydroxypyrrolidin-1-yl)pyridin-3-yl)-6-fluoropyrazolo[1,5-a]pyrimidine-3-carboxamide], the “Cisplatin Sensitization Assay” value was “+++ (Cisplatin sensitization value of <0.02 μM)”.
On to `Nc1nn2cc(F)cnc2c1C(=O)Nc1cnccc1N1CC(=O)N2CCCC2C1` (stereo not drawn) [I-N-222, 2-amino-6-fluoro-N-(4-(4-oxohexahydropyrrolo[1,2-a]pyrazin-2(1H)-yl)pyridin-3-yl)pyrazolo[1,5-a]pyrimidine-3-carboxamide], for which the “Cisplatin Sensitization Assay” value was “++ (Cisplatin sensitization value>0.02 μM but <0.2 μM)”.
